{
  "source": "patent US4602006A",
  "about": "“Ynenolactone protease inhibitors” (Syntex (U.S.A.) Inc., priority 1984, dated 1986)",
  "target": "T1, Human Leukocyte Elastase (Homo sapiens, UniProt P08246)",
  "T1 construct": "fresh human leukocytes were obtained from a healthy donor; from tissue; host or cells: human leukocytes from a healthy donor (homogenized)",
  "T1 sequence (P08246 30-247 limits assumed)": "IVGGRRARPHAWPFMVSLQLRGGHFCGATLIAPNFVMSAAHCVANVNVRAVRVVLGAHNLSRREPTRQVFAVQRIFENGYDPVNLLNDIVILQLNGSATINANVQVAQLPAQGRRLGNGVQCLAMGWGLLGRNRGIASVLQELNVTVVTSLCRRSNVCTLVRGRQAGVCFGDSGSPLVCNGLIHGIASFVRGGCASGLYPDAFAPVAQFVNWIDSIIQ",
  "test": "Inactivation of Human Leukocyte Elastase (fluorogenic substrate assay)",
  "format": "biochemical",
  "data": [
    {"smiles": "C#C/C=C1\\CC(Cc2ccccc2)C(=O)O1", "note": "(stereo not shown) [3-Benzyl-5(E)-(prop-2-ynylidene)tetrahydro-2-furanone]", "values": [
      {"measurement": "irreversibility of inactivation", "setting": "0.24 nanomoles HL elastase + 4 microliters 2 mM inhibitor, 25° C., after 17 minutes chromatographed on Sephadex G-50", "result": "irreversibility of this inactivation was shown"},
      {"measurement": "kinact", "setting": "25° C., pH 7.8, substrate MeOSuc-Ala-Ala-Pro-Val-methylcoumarinamide, read-out: maximum inactivation rate", "result": 0.09, "unit": "s⁻¹"},
      {"measurement": "KI (inactivation)", "setting": "half-maximal inactivation rate, 25° C., pH 7.8, read-out: inhibitor concentration required for half-maximal rate", "result": 4.1, "unit": "µM"},
      {"measurement": "mode of enzyme inactivation", "setting": "inhibitor added after recording the uninhibited rate", "result": "inactivated in a time and concentration dependent manner"}
    ]}
  ]
}
